Data: US20240024273A1, “TOPICAL ADMINISTRATION OF 2-(DIETHYLAMINO)ETHYL 2-(4-ISOBUTYLPHENYL)PROPRIONATE FOR TREATMENT OF DISEASES” (TECHFIELDS PHARMA CO., LTD., priority 2020, published 2024)

System: Subjects with Osteoarthritis of the Knee
Assay: Second Phase 2 study: safety (treatment-emergent adverse events)
Format: in vivo, human
Description: Safety assessments will be performed at each visit and will include assessment of AEs, vital signs (blood pressure, pulse rate, and oral temperature), clinical laboratories, physical examination, skin irritation, and electrocardiograms (ECGs) as indicated in the study flow chart, Table 47.
Safety assessments will include AEs, vital signs (blood pressures, pulse rate, and oral temperature), clinical laboratories, physical examination, skin irritation, and ECGs at various time points during the study as indicated in the study flow chart.
Adverse events of interest include: local skin reactions around the treated knee(s), upper stomach pain, GI bleeding, serious cardiovascular side effects (e.g., thrombotic events, myocardial infarction, or stroke), jaundice, elevated liver function tests, and nausea.
Safety analyses will be conducted on the SAS. Safety parameters will be listed and summarized using standard descriptive statistics, as appropriate. No formal statistical analyses are planned.

## CCN(CC)CCOC(=O)C(C)c1ccc(CC(C)C)cc1 (stereo not drawn) [2-(diethylamino)ethyl 2-(4-isobutylphenyl)propionate]
8.75 mg/knee, BID, N = 70
  Abdominal Discomfort: percentage of subjects with adverse events: 4.3%
  Abdominal Discomfort: subjects with adverse events: 3
  Abdominal Pain Upper: number of adverse events: 1
  Abdominal Pain Upper: percentage of subjects with adverse events: 1.4%
  Abdominal Pain Upper: subjects with adverse events: 1
  Administration Site Conditions: number of adverse events: 1
  Administration Site Conditions: percentage of subjects with adverse events: 1.4%
  Administration Site Conditions: subjects with adverse events: 1
  Alanine Aminotransferase Increased: number of adverse events: 1
  Alanine Aminotransferase Increased: percentage of subjects with adverse events: 1.4%
  Alanine Aminotransferase Increased: subjects with adverse events: 1
  Application Site Irritation: number of adverse events: 1
  Application Site Irritation: percentage of subjects with adverse events: 1.4%
  Application Site Irritation: subjects with adverse events: 1
  Back Pain: number of adverse events: 2(%)[2]
  Back Pain: subjects with adverse events, number (percentage): 2(%)[2]
  Blood Lactate Dehydrogenase Increased: number of adverse events: 1
  Blood Lactate Dehydrogenase Increased: percentage of subjects with adverse events: 1.4%
  Blood Lactate Dehydrogenase Increased: subjects with adverse events: 1
  Diarrhoea: number of adverse events: 2
  Diarrhoea: percentage of subjects with adverse events: 2.9%
  Diarrhoea: subjects with adverse events: 2
  Dizziness: number of adverse events: 2
  Dizziness: subjects with adverse events, number (percentage): 2(2.9%)
  Ear and Labyrinth Disorders: number of adverse events: 2
  Ear and Labyrinth Disorders: percentage of subjects with adverse events: 2.9%
  Ear and Labyrinth Disorders: subjects with adverse events: 2
  Frequency of Positive Fecal Occult Blood Test: 6
  Gastrointestinal Disorders: number of adverse events: 11
  Gastrointestinal Disorders: percentage of subjects with adverse events: 14.3%
  Gastrointestinal Disorders: subjects with adverse events: 10
  Headache: number of adverse events: 6
  Headache: subjects with adverse events, number (percentage): 4(5.7%)
  Hypercholesterolaemia: number of adverse events: 5
  Hypercholesterolaemia: percentage of subjects with adverse events: 7.1%
  Hypercholesterolaemia: subjects with adverse events: 5
  Hypertension: number of adverse events: 1
  Hypertension: percentage of subjects with adverse events: 1.4%
  Hypertension: subjects with adverse events: 1
  Hypertriglyceridemia: number of adverse events: 3
  Hypertriglyceridemia: percentage of subjects with adverse events: 4.3%
  Hypertriglyceridemia: subjects with adverse events: 3
  Hypoaesthesia: number of adverse events: 1
  Hypoaesthesia: subjects with adverse events, number (percentage): 1(1.4%)
  Infections and Infestations: number of adverse events: 20
  Infections and Infestations: subjects with adverse events, number (percentage): 20(28.6%)
  Influenza: number of adverse events: 1
  Influenza: subjects with adverse events, number (percentage): 1(1.4%)
  Investigations: number of adverse events: 5
  Investigations: percentage of subjects with adverse events: 7.1%
  Investigations: subjects with adverse events: 5
  Joint Stiffness: number of adverse events: 1(%)[1]
  Joint Stiffness: subjects with adverse events, number (percentage): 1(%)[1]
  Metabolism and Nutrition Disorders: number of adverse events: 8
  Metabolism and Nutrition Disorders: percentage of subjects with adverse events: 12.9%
  Metabolism and Nutrition Disorders: subjects with adverse events: 8
  Musculoskeletal and Connective Tissue Disorders, Overall Total: number of adverse events: 7
  Musculoskeletal and Connective Tissue Disorders, Overall Total: subjects with adverse events, number (percentage): 7(10.0%)
  Nausea: number of adverse events: 3
  Nausea: percentage of subjects with adverse events: 4.3%
  Nausea: subjects with adverse events: 3
  Neck Pain: number of adverse events: 3(%)[3]
  Neck Pain: subjects with adverse events, number (percentage): 3(%)[3]
  Nervous System Disorders: number of adverse events: 8
  Nervous System Disorders: subjects with adverse events, number (percentage): 7(10.0%)
  Oropharyngeal Pain: number of adverse events: 2
  Oropharyngeal Pain: subjects with adverse events, number (percentage): 2(1.4%)
  Pain in Extremity: number of adverse events: 1(%)[1]
  Pain in Extremity: subjects with adverse events, number (percentage): 1(%)[1]
  Respiratory, Thoracic and Mediastinal Disorders: number of adverse events: 3
  Respiratory, Thoracic and Mediastinal Disorders: subjects with adverse events, number (percentage): 3(4.3%)
  Skin Irritation: number of adverse events: 1
  Skin Irritation: percentage of subjects with adverse events: 1.4%
  Skin Irritation: subjects with adverse events: 1
  Skin and Subcutaneous Tissue Disorders: number of adverse events: 1
  Skin and Subcutaneous Tissue Disorders: percentage of subjects with adverse events: 1.4%
  Skin and Subcutaneous Tissue Disorders: subjects with adverse events: 1
  Subjects with Positive Fecal Occult Blood Test: 5
  Subjects with Positive Fecal Occult Blood Test, percentage: 7.1%
  Throat Irritation: number of adverse events: 1
  Throat Irritation: subjects with adverse events, number (percentage): 1(1.4%)
  Thrombosis: number of adverse events: 1
  Thrombosis: percentage of subjects with adverse events: 1.4%
  Thrombosis: subjects with adverse events: 1
  Tooth Infection: number of adverse events: 1
  Tooth Infection: subjects with adverse events, number (percentage): 1(1.4%)
  Toothache: number of adverse events: 1
  Toothache: percentage of subjects with adverse events: 1.4%
  Toothache: subjects with adverse events: 1
  Transaminases Increased: number of adverse events: 1
  Transaminases Increased: percentage of subjects with adverse events: 1.4%
  Transaminases Increased: subjects with adverse events: 1
  Upper Respiratory Tract Infection: number of adverse events: 12
  Upper Respiratory Tract Infection: subjects with adverse events, number (percentage): 12(15.7%)
  Urinary Tract Infection: number of adverse events: 6
  Urinary Tract Infection: subjects with adverse events, number (percentage): 6(8.6%)
  Vascular Disorders: number of adverse events: 2
  Vascular Disorders: percentage of subjects with adverse events: 2.9%
  Vascular Disorders: subjects with adverse events: 2
  Vertigo: number of adverse events: 2(%)[2]
  Vertigo: subjects with adverse events: 2(%)[2]
  White Blood Cell Count Decreased: number of adverse events: 2
  White Blood Cell Count Decreased: percentage of subjects with adverse events: 2.9%
  White Blood Cell Count Decreased: subjects with adverse events: 2
17.5 mg/knee (BID)
  GI disorders incidence rate: 5.7%
  incidence rate of AEs possibly, probably, or definitely related to study drug: 35.7%
  infections and infestations incidence rate: 18.6%
  positive fecal occult blood test incidence rate: 7.1%
17.5 mg/knee, BID, N = 70
  Abdominal Discomfort: number of adverse events: 1
  Abdominal Discomfort: percentage of subjects with adverse events: 1.4%
  Abdominal Discomfort: subjects with adverse events: 1
  Abdominal Pain Upper: number of adverse events: 2
  Abdominal Pain Upper: percentage of subjects with adverse events: 1.4%
  Abdominal Pain Upper: subjects with adverse events: 1
  Administration Site Conditions: number of adverse events: 4
  Administration Site Conditions: percentage of subjects with adverse events: 5.7%
  Administration Site Conditions: subjects with adverse events: 4
  Application Site Irritation: number of adverse events: 1
  Application Site Irritation: percentage of subjects with adverse events: 1.4%
  Application Site Irritation: subjects with adverse events: 1
  Application Site Rash: number of adverse events: 3
  Application Site Rash: percentage of subjects with adverse events: 4.3%
  Application Site Rash: subjects with adverse events: 3
